Source: publication PMC8143291, “Cytotoxicity and Microbicidal Activity of Commonly Used Organic Solvents: A Comparative Study and Application to a Standardized Extract from Vaccinium macrocarpon” (Toxics, 2021)

How the values were obtained:
Test in all cases: Broth microdilution MIC/MBC
S. Aureus ATCC 29213 = type: cell-based, Staphylococcus aureus; conditions: 24 h exposure; v/v; n = 3
From the text: (§1) The bacterial strains used for AST of the solvents included: Staphylococcus aureus (ATCC 29213), Staphylococcus aureus—MRSA (NBIMCC 8327—resistant to methicillin and oxacillin, National Bulgarian Collection for Industrial Microorganisms and Cell Cultures, Sofia, Bulgaria), Streptococcus pyogenes (SAIMC 10535, Collection of the Stephan Angeloff Institute of Microbiology, Sofia, Bulgaria), Enterococcus faecalis (ATCC 29212), Escherichia coli (ATCC 35218), Pseudomonas aeruginosa (ATCC 27853), and Yersinia enterocolitica (IP864 O:3, Collection of Institut Pasteur, Paris, France). The selected strains are the most often investigated ones in the AST research studies in correspondence with the standard ISO 20776-1 Part 1: Reference method for testing the in vitro activity of antimicrobial agents against rapidly growing aerobic bacteria involved in infectious diseases. The antimycotic activity was tested on Candida albicans (CBS 562, Utrecht, The Netherlands). The strains S. aureus, MRSA, E. coli and E. faecalis were grown on Mueller–Hinton broth/agar (MHB/MHA); S. pyogenes, P. aeruginosa, Y. enterocolitica and C. albicans were grown on brain heart infusion (BHI) broth/agar; E. coli was also grown on Luria–Bertani broth/agar (LBB/LBA).
(§2) The minimum inhibitory concentration (MIC) for each solvent was estimated by the broth microdilution method (BMD) in 96-well microplates, following ISO 20776/1-2006 [3] and CLSI protocols. Briefly, a standardized bacterial inoculum was prepared from each bacterial species by suspending 3–4 colonies from a pure culture into 4 mL sterile saline. The turbidity of the inocula was adjusted to McFarland 0.5 (1.0 × 10^8 CFU/mL, λ = 600 nm), and 50 µL were resuspended in 10 mL of the appropriate culture medium for each strain. The bacterial inocula were added to microtiter trays containing equivalent volumes of medium loaded with the relevant solvent in concentrations varying from 0.025 to 25% volume fraction. The final volume of each sample was 100 µL/well. The plates were incubated at 37 °C for 24 h. The pure culture medium served as a negative control. Every MIC was evaluated visually as the lowest concentration without visible growth. […] MBC was defined as the lowest compound’s concentration reducing the colony growth of the initial bacterial inoculum by ≥ 99.9%.

[1] = tested on: S. Aureus MRSA NBIMCC 8327; type: cell-based, Staphylococcus aureus; conditions: 24 h exposure; v/v; n = 3
From the text: as §1, §2

[2] = tested on: Candida Albicans SAIMC 562; type: cell-based; conditions: 24 h exposure; v/v; n = 3
From the text: as §1, with “The antimycotic activity was tested on Candida albicans (CBS 562, Utrecht, The Netherlands).” left out
as §2

E. coli ATCC 35218 = type: cell-based, Escherichia coli; conditions: 24 h exposure, v/v, n = 3
From the text: as §1, §2

CCO [EtOH, ethanol]
MBC (S. Aureus ATCC 29213): >25%
MIC (S. Aureus ATCC 29213): >25%
MBC [1]: >25%
MIC [1]: >25%
MBC [2]: >25%
MIC [2]: >25%
MBC (E. coli ATCC 35218; in LBB): >25%
MIC (E. coli ATCC 35218; in LBB): >25%
MBC (E. coli ATCC 35218; in MHB): >25%
MIC (E. coli ATCC 35218; in MHB): >25%

polyethylene glycol of average molecular weight 400 [PEG-400]
MBC (S. Aureus ATCC 29213): >25%
MIC (S. Aureus ATCC 29213): >25%
MBC [1]: 25%
MIC [1]: 25%
MBC [2]: >25%
MIC [2]: >25%
MBC (E. coli ATCC 35218; in LBB): >25%
MIC (E. coli ATCC 35218; in LBB): 25%
MBC (E. coli ATCC 35218; in MHB): >25%
MIC (E. coli ATCC 35218; in MHB): >25%

C[S+](C)[O-] [DMSO, dimethyl sulfoxide]
MBC (S. Aureus ATCC 29213): >25%
MIC (S. Aureus ATCC 29213): 25%
MBC [1]: >25%
MIC [1]: 25%
MBC [2]: 6.25%
MIC [2]: 6.25%
MBC (E. coli ATCC 35218; in LBB): >25%
MIC (E. coli ATCC 35218; in LBB): 12.5%
MBC (E. coli ATCC 35218; in MHB): >25%
MIC (E. coli ATCC 35218; in MHB): 12.5%
